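Five concentrations, 48 hours, 96-well plates. GI50 = concentration required for 50% inhibition of growth. TGI: total growth inhibition.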
How the values were obtained:
Test in all cases: NCI-60 cell line screen, 48 h
BT-549 breast = tested on: BT-549 breast
DU-145 prostate = tested on: DU-145 prostate
NCI/ADR-RES ovarian = tested on: NCI/ADR-RES ovarian
MDA-N = tested on: MDA-N
DLD-1 colon = tested on: DLD-1 colon
M19-MEL melanoma = tested on: M19-MEL melanoma
RXF-631 renal = tested on: RXF-631 renal
XF 498 CNS = tested on: XF 498 CNS
HOP-18 NSCLC = tested on: HOP-18 NSCLC

| SMILES | GI50 (BT-549 breast) [µM] | TGI (BT-549 breast) [µM] | GI50 (DU-145 prostate) [µM] | TGI (DU-145 prostate) [µM] | GI50 (NCI/ADR-RES ovarian) [µM] | TGI (NCI/ADR-RES ovarian) [µM] | other results |
| --- | --- | --- | --- | --- | --- | --- | --- |
| CC/C=C\C[C@H]1C/C=C2/C(=O)C=C[C@@H]2C/C=C\CCCC(=O)O1 | 0.674 | 3.22 | 0.816 | 5.79 | 0.405 | 7.32 |  |
| C[C@]12CC[C@@H]3c4cc(OCC(F)(F)F)c(O)cc4/C(=N/O)C[C@H]3[C@@H]1CC[C@@H]2O |  |  | 0.0673 | > 54 | 0.0392 | 2.49 | TGI (MDA-N): 1.06 µM |
| O=S(=O)(Nc1cc(Sc2cccc3cccnc23)c(O)c2ccccc12)c1ccccc1 | 2.9 | 16 | 0.828 | 9.83 | 0.931 | 11 |  |
| COc1ccc2cc(C(C)C(=O)N3CCOC3=O)ccc2c1 (configuration not stated) |  | > 100 |  | > 100 |  | > 100 | TGI (MDA-N): > 100 µM |
| CC(=O)C(=CN1CCN(C(=O)c2ccco2)C1=S)C(C)=O | 14 | 30.1 |  |  | 23.2 | 56.6 |  |
| O=C1NC(=O)C(CC2CCCCCCCCCCC2=O)C(=O)N1 (configuration not stated) |  | > 100 |  | > 100 |  | > 100 | TGI (MDA-N): > 100 µM |
| C/C(CC(=O)NCCc1ccccc1)=N\NC(=O)C[n+]1ccccc1 |  |  |  |  |  |  | TGI (DLD-1 colon): > 100 µM; TGI (M19-MEL melanoma): > 100 µM; TGI (RXF-631 renal): > 100 µM; TGI (XF 498 CNS): > 100 µM |
| CCCCON(OC(=O)c1ccc2ccc3cccc4ccc1c2c34)C(C)=O | 19.2 | 42.7 | 31.1 | > 100 | 21.9 | 60.7 |  |
| Cc1ccc2[nH]c(O)c(N=Nc3ccc(S(N)(=O)=O)cc3)c2c1 | 9.88 | > 18.4 | 9.46 | > 25 | 18.2 | > 25 |  |
| C=C1C(=O)OC2/C=C(\COC(C)=O)CCC(OC(C)=O)C3=CC(OC3=O)C12 (configuration not stated) |  | 22.6 |  | > 100 |  |  | TGI (DLD-1 colon): 9.92 µM; TGI (RXF-631 renal): 48 µM; TGI (XF 498 CNS): 5.33 µM |
| O=C1/C(=C/c2cccc([N+](=O)[O-])c2)COc2ccc(Br)cc21 |  |  |  |  |  |  | TGI (DLD-1 colon): > 100 µM; TGI (HOP-18 NSCLC): > 100 µM; TGI (M19-MEL melanoma): > 100 µM; TGI (XF 498 CNS): > 100 µM |
| Clc1ccc2c(c1)-c1c3c(nn1-c1ccccc1)-c1ccccc1SC3O2 (configuration not stated) |  |  |  |  |  |  | TGI (HOP-18 NSCLC): > 100 µM; TGI (M19-MEL melanoma): > 100 µM; TGI (XF 498 CNS): > 100 µM |
| Cn1c2ccccc2c(=O)c2ccc(Cl)cc21 |  |  |  |  |  |  | TGI (MDA-N): > 10 µM |
| C=CC[C@]12C=C(OC)[C@@H](O)[C@](OC)(C(c3cc(OC)c4c(c3)OCO4)[C@H]1C)[C@H]2OC(C)=O (some centres not stated) |  | > 100 |  | > 100 |  | > 100 | TGI (MDA-N): > 100 µM |
| CCSc1nc(SCC)c2cn[nH]c2n1 | 37.5 | > 100 | 30.6 | > 100 | > 100 | > 100 |  |
| O=C(/C=C\c1ccc(NCc2ccc(C(=O)O)cc2)cc1)CCl | 7.95 | 21.5 | 17.3 | 31.9 | 17.8 | 39.6 |  |
| O=C1NC2OC(C(O)CO)C(O)C2O1 (configuration not stated) |  |  |  |  |  |  | TGI (HOP-18 NSCLC): > 100 µM; TGI (M19-MEL melanoma): > 100 µM; TGI (XF 498 CNS): > 100 µM |
| COc1cc(C(=O)c2cc(C)c3[nH]c4ccc(C)cc4c3c2C)cc(OC)c1OC | < 0.01 | 2.45 | < 0.01 |  | < 0.01 | > 32.9 |  |
| Nc1ccn(C2CCC(CO)O2)c(=O)n1 (configuration not stated) |  | > 1000 |  | > 1000 |  | > 1000 | TGI (MDA-N): > 1000 µM |

| SMILES | GI50 (BT-549 breast) [µM] | TGI (BT-549 breast) [µM] | GI50 (DU-145 prostate) [µM] | TGI (DU-145 prostate) [µM] | GI50 (NCI/ADR-RES ovarian) [µM] | TGI (NCI/ADR-RES ovarian) [µM] | other results |
| --- | --- | --- | --- | --- | --- | --- | --- |
| O=C1OC2CCCC[C@@H]2C2C[C@]34CCCCC3[C@@H](C(=O)O4)C12 (some centres not stated) |  |  |  |  |  |  | TGI (DLD-1 colon): > 100 µM; TGI (HOP-18 NSCLC): > 100 µM; TGI (M19-MEL melanoma): > 100 µM; TGI (XF 498 CNS): > 100 µM |
| CC(C)C[C@H](NC(=O)/C=C/Cn1ccc2ccccc2c1=O)B(O)O | 2.67 | 13.7 | 8.78 | > 100 | 90.8 | > 100 |  |
| C1C[OH+]CC[OH+]CC[OH+]CC[OH+]CC[OH+]1.[Cl-].[V] |  |  |  |  |  |  | GI50 (DLD-1 colon): > 100 µM; TGI (DLD-1 colon): > 100 µM; GI50 (HOP-18 NSCLC): 60.6 µM; TGI (HOP-18 NSCLC): > 100 µM |
| COc1c(CCl)cc(-c2cc(=O)c3ccccc3s2)cc1CCl |  | > 100 |  | > 100 |  | > 100 | TGI (MDA-N): > 100 µM |
| CC1=CC(C/C(C)=C/COc2ccc3ccc(=O)oc3c2)OC1=O (configuration not stated) |  | > 100 |  | > 100 |  | > 100 | TGI (MDA-N): > 100 µM |
| COc1ccc(/C=C/c2cc(OC)cc(=O)o2)cc1 |  |  |  | > 100 |  | > 100 | TGI (MDA-N): > 100 µM |
| CSC(C1c2ccccc2N(c2ccc(C)cc2)c2[nH]c(=O)n(C)c(=O)c21)S(=O)(=O)c1ccc(C)cc1 (configuration not stated) |  |  |  |  |  |  | TGI (DLD-1 colon): > 100 µM; TGI (M19-MEL melanoma): > 100 µM; TGI (XF 498 CNS): > 100 µM |
| COc1cc(NC(C)CCCN)c2nccc(C)c2c1 (configuration not stated) |  | 56.7 |  | > 100 |  | > 100 | TGI (MDA-N): 33.7 µM |
| O=C1CSC(c2ccc(Cl)cc2Cl)N1c1ccc(F)cc1 (configuration not stated) | 18 | 32.3 | 16.1 | 29.6 | 18.8 | 35.5 |  |
| Cc1ccc(S(=O)(=O)C(C#N)c2nc3ccccc3nc2-n2ccnc2)cc1 (configuration not stated) |  |  |  |  |  |  | TGI (DLD-1 colon): > 100 µM; TGI (HOP-18 NSCLC): > 100 µM; TGI (M19-MEL melanoma): > 100 µM; TGI (XF 498 CNS): > 100 µM |
| Cc1c(C(=O)/C=C/c2ccccc2)[n+](=O)c2ccccc2n1[O-] |  |  |  |  |  |  | TGI (DLD-1 colon): 27.5 µM; TGI (HOP-18 NSCLC): 57 µM; TGI (M19-MEL melanoma): 30 µM; TGI (XF 498 CNS): 24.6 µM |
| COc1c(C(C)C)cc2c3c1OC(=O)[C@@]31CCCC(C)(C)C1CC2 (some centres not stated) |  |  |  |  |  |  | TGI (DLD-1 colon): > 100 µM; TGI (M19-MEL melanoma): 80.8 µM |
| O=C(CCC1OCCO1)Nc1cc(NCc2ccccc2)ccc1OCc1ccccc1 |  | > 100 |  | > 100 |  | > 100 |  |
| O=C1CCC(O)=C1N=Nc1ccccc1 |  |  |  |  |  |  | TGI (DLD-1 colon): > 100 µM; TGI (HOP-18 NSCLC): > 100 µM; TGI (M19-MEL melanoma): > 100 µM; TGI (RXF-631 renal): > 100 µM |
| CN(C)c1cc[c]([Sn]([c]2ccc(N(C)C)cc2)([c]2ccc(N(C)C)cc2)[c]2ccc(N(C)C)cc2)cc1 |  |  |  |  |  |  | GI50 (HOP-18 NSCLC): 8.77 µM; TGI (HOP-18 NSCLC): 32.9 µM; GI50 (M19-MEL melanoma): 5.17 µM; TGI (M19-MEL melanoma): 24.4 µM |
| CN(CCC#N)c1ccc(/C=C(\C#N)c2ccc(Br)cc2)cc1 | > 100 | > 100 | > 100 | > 100 |  |  |  |
| COc1ccc(CCN2COc3c([C@@H](C)CCC=C(C)C)ccc(C)c3C2)cc1OC |  |  |  |  | 2.96 | 9.51 |  |
| COc1ccc(/C=C/C(=O)C(CC2CCC2)C(=O)/C=C/c2ccc(OC)c(OC)c2)cc1OC | 1.54 | 4.04 | 1.71 | 3.56 | 2.58 | > 100 |  |
